Reference: US20240002375A1, “2-(INDAZOL-5-YL)-6-(PIPERIDIN-4-YL)-1,7-NAPHTHYRIDINE DERIVATIVES AND RELATED COMPOUNDS AS MODULATORS FOR SPLICING NUCLEIC ACIDS AND FOR THE TRE” (REMIX THERAPEUTICS INC., priority 2020, published 2024)
Each block holds one compound with its values, some of them ahead of it.

Columns and labels:
Assay type in all cases: cell-based
[1] = test system: Target C CJ mRNA; test: Gene panel canonical junction qPCR splicing assay, Target C; settings: Table 4, read-out: Target C IC50 (decrease in CJ mRNA levels)
Procedure: (§1) Compounds described herein were used to modulate RNA transcript abundance in cells. The expression of a target mRNA was measured by detecting the formation of an exon-exon junction in the canonical transcript (CJ). A compound mediated exon-inclusion event was detected by observing an increase in formation of a new junction with an alternative exon (AJ). Real-time qPCR assays were used to detect these splicing switches and interrogate the potency of various compounds towards different target genes. A high-throughput real time quantitative PCR (RT-qPCR) assay was developed to measure these two isoforms of the mRNA (CJ and AJ) for an exemplary gene, HTT, together with a control housekeeping gene, GAPDH or GUSB or PPIA, used for normalization. Briefly, the A673 or K562 cell line was treated with various compounds described herein (e.g., compounds of Formula (I) or (II)). After treatment, the levels of the HTT mRNA targets were determined from each sample of cell lysate by cDNA synthesis followed by qPCR. The data analysis was performed by first determining the ΔCt vs the housekeeper gene. This ΔCt was then normalized against the DMSO control (ΔΔCt) and converted to RQ (relative quantification) using the 2^(−ΔΔCt) equation. The RQ were then converted to a percentage response by arbitrarily setting an assay window of 3.5 ΔCt for HTT-CJ and an assay window of 9 ΔCt for HTT-AJ. […] The percentage response was then fitted to the 4 parametric logistic equation to evaluate the concentration dependence of compound treatment. The increase in AJ mRNA is reported as AC50 (compound concentration having 50% response in AJ increase) while the decrease in CJ mRNA levels is reported as IC50 (compound concentration having 50% response in CJ decrease). Additional studies were carried out for a larger panel of genes using the protocol provided above. The junction between flanking upstream and downstream exons was used to design canonical junction qPCR assays. At least one of the forward primer, reverse primer or the CY5-labeled 5′ nuclease probe (with 3′ quencher such as ZEN/Iowa Black FQ) was designed to overlap with the exon junction to capture the CJ mRNA transcript. BLAST was used to confirm the specificity of the probeset and parameters such as melting temperature, GC content, amplicon size, and primer dimer formation are considered during their design. Data for the decrease in CJ mRNA levels for three exemplary genes (HTT, SMN2, and Target C) analyzed in this panel are reported as IC50 (compound concentration having 50% response in CJ decrease).

[2] = test system: HTT CJ mRNA; test: Gene panel canonical junction qPCR splicing assay, HTT; settings: Table 4, read-out: HTT IC50 (decrease in CJ mRNA levels)
Procedure: as §1

[3] = test system: HTT mRNA; test: Splicing assay (RT-qPCR) of HTT mRNA alternative junction (AJ) and canonical junction (CJ); settings: A673 or K562 cells, 24 hours; for IC50: decrease in CJ mRNA, read-out: HTT CJ IC50; for AC50: increase in AJ mRNA, read-out: HTT AJ AC50
Procedure: Compounds described herein were used to modulate RNA transcript abundance in cells. The expression of a target mRNA was measured by detecting the formation of an exon-exon junction in the canonical transcript (CJ). A compound mediated exon-inclusion event was detected by observing an increase in formation of a new junction with an alternative exon (AJ). Real-time qPCR assays were used to detect these splicing switches and interrogate the potency of various compounds towards different target genes. A high-throughput real time quantitative PCR (RT-qPCR) assay was developed to measure these two isoforms of the mRNA (CJ and AJ) for an exemplary gene, HTT, together with a control housekeeping gene, GAPDH or GUSB or PPIA, used for normalization. Briefly, the A673 or K562 cell line was treated with various compounds described herein (e.g., compounds of Formula (I) or (II)). After treatment, the levels of the HTT mRNA targets were determined from each sample of cell lysate by cDNA synthesis followed by qPCR.
Materials: • Cells-to-CT 1-step kit: ThermoFisher A25602, Cells-to-CT lysis reagent: ThermoFisher 4391851C, TagMan™ Fast Virus 1-Step Master Mix: ThermoFisher 4444436 • GAPDH: VIC-PL, ThermoFisher 4326317E (Assay: Hs99999905_ml)—used for K562/suspension cell lines • GUSB: VIC-PL, ThermoFisher 4326320E (Assay: Hs99999908 ml)—used for K562/suspension cell lines • PPIA: VIC-PL, ThermoFisher 4326316E (Assay: Hs99999904 ml)—used for A673/adherent cell lines
The A673 cell line was cultured in DMEM with 10% FBS. Cells were diluted with full growth media and plated in a 96-well plate (15,000 cells in 100 ul media per well). The plate was incubated at 37° C. with 5% CO2 for 24 hours to allow cells to adhere. An 11-point 3-fold serial dilution of the compounds was made in DMSO then diluted in media in an intermediate plate. Compounds were transferred from the intermediate plate to the cell plate with the top dose at a final concentration of 10 uM in the well. Final DMSO concentration was kept at or below 0.25%. The cell plate was returned to the incubator at 37° C. with 5% CO2 for an additional 24 hours.
The K562 cell line was cultured in IMDM with 10% FBS. For K562, cells were diluted with full growth media and plated in either a 96-well plate (50,000 cells in 50 uL media per well) or a 384-well plate (8,000-40,000 cells in 45 uL media per well). An 11-point 3-fold serial dilution of the compounds were made in DMSO then diluted in media in an intermediate plate. Compound was transferred from the intermediate plate to the cell plate with the top dose at a final concentration of 10 uM in the well. Final DMSO concentration was kept at or below 0.25%. Final volume was 100 uL for 96-well plate and 50 uL for 384-well plate. The cell plate was then placed in an incubator at 37° C. with 5% CO2 for 24 hours.
The cells were then gently washed with 50 uL-100 uL cold PBS before proceeding to addition of lysis buffer. 30 uL-50 uL of room temperature lysis buffer with DNAse I (and optionally RNAsin) was added to each well. Cells were shaken/mixed thoroughly at room temperature for 5-10 minutes for lysis to take place and then 3 uL-5 uL of room temperature stop solution was added and wells were shaken/mixed again. After 2-5 minutes, the cell lysate plate was transferred to ice for RT-qPCR reaction setup. The lysates could also be frozen at −80° C. for later use.
In some cases, a direct lysis buffer was used. An appropriate volume of 3X lysis buffer (10 mM Tris, 150 mM NaCl, 1.5%-2.5% Igepal and 0.1-1 U/uL RNAsin, pH 7.4) was directly added to either K562 or A673 cells in media and mixed by pipetting 3 times. The plates were then incubated at room temperature with shaking/rocking for 20-50 minutes to allow for lysis to take place. After this time, the cell lysate plate was transferred to ice to set up for the RT-qPCR reactions. The lysates could also be frozen at −80° C. for later use. […]

[4] = test system: SMN2 CJ mRNA; test: Gene panel canonical junction qPCR splicing assay, SMN2; settings: Table 4, read-out: SMN2 IC50 (decrease in CJ mRNA levels)
Procedure: as §1

SMILES: Cc1c(O)c(-c2ccc3nc(N4CC[C@@H](NC5CC5)C4)ccc3n2)cc2cn(C)nc12 (single isomer, unassigned) [Compound 259]
IC50 [1]: < 100 nM
IC50 [2]: < 100 nM
IC50 [3]: < 100 nM
AC50 [3]: < 100 nM
IC50 [4]: < 100 nM

SMILES: Cn1cc2cc(-c3ccc4nc(N5CC[C@H](NC6COC6)C5)ccc4n3)c(O)cc2n1 (stereo in doubt) [Compound 189]
IC50 [1]: 1000 to 10000 nM
IC50 [2]: 1000 to 10000 nM
IC50 [3]: 1000 to 10000 nM
AC50 [3]: 100 to 1000 nM
IC50 [4]: < 100 nM

SMILES: Cc1cn2nc(-c3ccc4nc(C5CCNCC5)ccc4n3)c(O)cc2n1 [Compound 103, 2-methyl-6-[6-(piperidin-4-yl)-1,5-naphthyridin-2-yl]imidazo[1,2-b]pyridazin-7-ol]
IC50 [1]: 1000 to 10000 nM
IC50 [2]: 100 to 1000 nM
IC50 [3]: 100 to 1000 nM
AC50 [3]: 100 to 1000 nM
IC50 [4]: > 10000 nM

SMILES: Cn1cc2c(O)c(-c3ccc4nc(C5CCNCC5)ccc4n3)ccc2n1 [Compound 105, 2-methyl-5-[6-(piperidin-4-yl)-1,5-naphthyridin-2-yl]indazol-4-ol]
IC50 [1]: 1000 to 10000 nM
IC50 [2]: > 10000 nM
IC50 [3]: > 10000 nM
AC50 [3]: > 10000 nM
IC50 [4]: 1000 to 10000 nM

SMILES: Cn1cc2c(O)c(-c3cc4ccc(C5CCNCC5)nc4cn3)ccc2n1 [Compound 106, 2-methyl-5-[2-(piperidin-4-yl)-1,7-naphthyridin-6-yl]indazol-4-ol]
IC50 [1]: 1000 to 10000 nM
IC50 [2]: 1000 to 10000 nM
IC50 [3]: 1000 to 10000 nM
AC50 [3]: 1000 to 10000 nM
IC50 [4]: 100 to 1000 nM

SMILES: O=C(Nc1cn[nH]c1)Nc1cc2nc(N3CCNCC3)ccc2cn1 [Compound 111, 1-[2-(piperazin-1-yl)-1,6-naphthyridin-7-yl]-3-(1H-pyrazol-4-yl)urea]
IC50 [1]: > 10000 nM
IC50 [2]: > 10000 nM
IC50 [3]: > 10000 nM
AC50 [3]: > 10000 nM
IC50 [4]: > 10000 nM

SMILES: O=C(NCc1ccn[nH]1)Nc1cc2nc(N3CCNCC3)ccc2cn1 [Compound 112, 1-[2-(piperazin-1-yl)-1,6-naphthyridin-7-yl]-3-(2H-pyrazol-3-ylmethyl)urea]
IC50 [1]: > 10000 nM
IC50 [2]: > 10000 nM
IC50 [3]: > 10000 nM
AC50 [3]: > 10000 nM
IC50 [4]: > 10000 nM

Continued, in another order:

IC50 [1]: 100 to 1000 nM
IC50 [2]: < 100 nM
IC50 [3]: < 100 nM
IC50 [4]: < 100 nM
SMILES: Cc1nc2cc(O)c(-c3ccc4nc(N5CC[C@@H](NC6(C)CC6)C5)ccc4n3)cc2o1 (single isomer, unassigned) [Compound 258, 2-methyl-6-(6-{3-[(1-methylcyclopropyl)amino]pyrrolidin-1-yl}-1,5-naphthyridin-2-yl)-1,3-benzoxazol-5-ol]
AC50 [3]: < 100 nM

IC50 [1]: < 100 nM
IC50 [2]: < 100 nM
IC50 [3]: < 100 nM
IC50 [4]: < 100 nM
SMILES: Cc1c(O)c(-c2ccc3nc(N4CC[C@H](NC5CC5)C4)ccc3n2)cc2cn(C)nc12 (single isomer, unassigned) [Compound 260]
AC50 [3]: < 100 nM

IC50 [1]: > 10000 nM
IC50 [2]: > 10000 nM
IC50 [3]: > 10000 nM
IC50 [4]: 1000 to 10000 nM
SMILES: Cn1cc2cc(-c3ccc4nc(N5CC[C@@H](NCC(F)(F)F)C5)ccc4n3)c(O)cc2n1 (stereo in doubt) [Compound 245]
AC50 [3]: > 10000 nM

IC50 [1]: < 100 nM
IC50 [2]: < 100 nM
IC50 [3]: < 100 nM
IC50 [4]: < 100 nM
SMILES: Cn1cc2cc(-c3ccc4nc(C5CCNCC5)ccc4n3)c(O)cc2n1 [Compound 100, 2-methyl-5-[6-(piperidin-4-yl)-1,5-naphthyridin-2-yl]indazol-6-ol]
AC50 [3]: 100 to 1000 nM

IC50 [1]: < 100 nM
IC50 [2]: < 100 nM
IC50 [3]: < 100 nM
IC50 [4]: < 100 nM
SMILES: Cc1c(O)c(-c2ccc3nc(C4CCNCC4)ccc3n2)cc2cn(C)nc12 [Compound 101, 2,7-dimethyl-5-[6-(piperidin-4-yl)-1,5-naphthyridin-2-yl]indazol-6-ol]
AC50 [3]: < 100 nM

IC50 [1]: < 100 nM
IC50 [2]: < 100 nM
IC50 [3]: < 100 nM
IC50 [4]: < 100 nM
SMILES: Cn1cc2cc(-c3ccc4nc(C5CCNCC5)ccc4n3)c(O)c(F)c2n1 [Compound 102, 7-fluoro-2-methyl-5-[6-(piperidin-4-yl)-1,5-naphthyridin-2-yl]indazol-6-ol]
AC50 [3]: < 100 nM

IC50 [1]: 1000 to 10000 nM
IC50 [2]: 100 to 1000 nM
IC50 [3]: 100 to 1000 nM
IC50 [4]: < 100 nM
SMILES: Cn1cc2cc(-c3ncc4nc(C5CCNCC5)ccc4n3)c(O)cc2n1 [Compound 107, 2-methyl-5-[6-(piperidin-4-yl)pyrido[3,2-d]pyrimidin-2-yl]indazol-6-ol]
AC50 [3]: 100 to 1000 nM

IC50 [1]: 1000 to 10000 nM
IC50 [2]: 1000 to 10000 nM
IC50 [3]: 1000 to 10000 nM
IC50 [4]: < 100 nM
SMILES: Cn1cc2c(O)c(-c3ncc4nc(C5CCNCC5)ccc4n3)ccc2n1 [Compound 108, 2-methyl-5-[6-(piperidin-4-yl)pyrido[3,2-d]pyrimidin-2-yl]indazol-4-ol]
AC50 [3]: 1000 to 10000 nM

IC50 [1]: 100 to 1000 nM
IC50 [2]: < 100 nM
IC50 [3]: < 100 nM
IC50 [4]: < 100 nM
SMILES: Cn1cc2cc(-c3ccc4cc(C5CCNCC5)ccc4n3)c(O)cc2n1 [Compound 109, 2-methyl-5-[6-(piperidin-4-yl)quinolin-2-yl]indazol-6-ol]
AC50 [3]: 100 to 1000 nM

IC50 [1]: < 100 nM
IC50 [2]: > 10000 nM
IC50 [4]: > 10000 nM
SMILES: CN(C(=O)Nc1cn[nH]c1)c1cc2nc(N3CCNCC3)ccc2cn1 [Compound 110, 1-methyl-1-[2-(piperazin-1-yl)-1,6-naphthyridin-7-yl]-3-(1H-pyrazol-4-yl)urea]
AC50 [3]: > 10000 nM
